Assay results reported in the supplement of paper PMC10307832.

What was measured:
Assay in all cases: relative viability (nuclei count vs DMSO), 5 days (fraction); higher = more cells survive
[1] = compound: O=c1ncccn1[C@@H]1O[C@H](CO)[C@@H](O)[C@H]1O [Zebularine] + Cc1cc(Nc2cc(N3CCN(C)CC3)nc(Sc3ccc(NC(=O)C4CC4)cc3)n2)n[nH]1 [Tozasertib] (partner 0.1 µM)
Outline: (§1)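 A single step with final 0.05% Triton X-100, 1% formaldehyde and 1 ug/ml Hoechst fixed the cells and stained nuclei 5 days after treatment. Lung cancer cell lines in 1536-well plates had been treated by pin tool the day after seeding with one drug alone or a fixed anchor-drug dose plus five library-drug doses (not always all listed) in √10 steps, and nuclei were counted on 4× images. Relative viability is the ratio of nuclei in treated wells to nuclei in vehicle wells, taken as the median of duplicate plates.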

[2] = compound: CC(C)CCN1c2nc(Nc3cc(F)c(O)c(F)c3)ncc2N(C)C(=O)C1C [BI-D1870] + CS(=O)(=O)CCNCc1ccc(-c2ccc3ncnc(Nc4ccc(OCc5cccc(F)c5)c(Cl)c4)c3c2)o1 [Lapatinib] (partner 2 µM)
Outline: as §1

[3] = compound: O=c1ncccn1[C@@H]1O[C@H](CO)[C@@H](O)[C@H]1O [Zebularine] + Nc1ncn([C@H]2C[C@H](O)[C@@H](CO)O2)c(=O)n1 [Decitabine] (partner 2 µM)
Outline: as §1

[4] = compound: CC(C)CCN1c2nc(Nc3cc(F)c(O)c(F)c3)ncc2N(C)C(=O)C1C [BI-D1870] + O=C(c1cc(Cc2n[nH]c(=O)c3ccccc23)ccc1F)N1CCN(C(=O)C2CC2)CC1 [Olaparib] (partner 8 µM)
Outline: as §1

| Cell Line | relative viability ([1]; first compound 1 µM) | relative viability ([1]; first compound 3.162 µM) | relative viability ([1]; first compound 10 µM) | relative viability ([1]; first compound 31.62 µM) | relative viability ([1]; first compound 100 µM) | relative viability ([2]; first compound 0.04 µM) | relative viability ([2]; first compound 0.1265 µM) | relative viability ([2]; first compound 0.4 µM) | relative viability ([2]; first compound 1.265 µM) | relative viability ([2]; first compound 4 µM) | relative viability ([3]; first compound 1 µM) | relative viability ([3]; first compound 3.162 µM) | relative viability ([3]; first compound 10 µM) | relative viability ([3]; first compound 31.62 µM) | relative viability ([3]; first compound 100 µM) | relative viability ([4]; first compound 0.04 µM) | relative viability ([4]; first compound 0.1265 µM) | relative viability ([4]; first compound 0.4 µM) | relative viability ([4]; first compound 1.265 µM) | relative viability ([4]; first compound 4 µM) |
| --- | --- | --- | --- | --- | --- | --- | --- | --- | --- | --- | --- | --- | --- | --- | --- | --- | --- | --- | --- | --- |
| LOU-NH91 | 0.7 | 0.641 | 0.68 | 0.704 | 0.384 | 0.837 | 0.717 | 0.782 | 0.837 | 0.677 | 0.842 | 0.802 | 0.744 | 0.849 | 0.593 | 1.06 | 0.892 | 0.903 | 0.911 | 0.669 |
| NCI-H441 | 0.825 | 0.711 | 0.334 | 0.221 | 0.344 | – | – | – | – | – | 0.246 | 0.237 | 0.266 | 0.184 | 0.16 | 0.682 | 0.549 | 0.569 | 0.537 | 0.492 |
| NCI-H522 | 0.549 | 0.526 | 0.527 | 0.522 | 0.577 | – | – | – | – | – | 0.621 | 0.577 | 0.641 | 0.61 | 0.639 | 0.7 | 0.627 | 0.67 | 0.667 | 0.62 |
| NCI-H1299 | – | – | – | – | – | 0.903 | 0.957 | 0.95 | 0.915 | 0.743 | – | – | – | – | – | 1.04 | 1 | 0.996 | 0.892 | 0.545 |
| NCI-H1563 | – | – | – | – | – | 1.08 | 0.898 | 0.817 | 0.9 | 0.917 | – | – | – | – | – | – | – | – | – | – |
| NCI-H1623 | 0.513 | 0.437 | 0.39 | 0.535 | 0.389 | – | – | – | – | – | – | – | – | – | – | – | – | – | – | – |
| NCI-H1648 | 0.551 | 0.418 | 0.407 | 0.342 | 0.379 | – | – | – | – | – | 0.456 | 0.478 | 0.368 | 0.487 | 0.438 | 0.919 | 0.691 | – | 0.633 | 0.846 |
| NCI-H1703 | – | – | – | – | – | 1.07 | 0.732 | 1.29 | 1.11 | 0.796 | – | – | – | – | – | – | 0.439 | 0.328 | 0.487 | 0.315 |
| NCI-H1792 | – | – | – | – | – | 0.926 | 0.953 | 0.881 | 0.967 | 0.794 | 0.62 | 0.531 | 0.292 | 0.292 | 0.254 | 0.434 | 0.334 | 0.369 | 0.812 | 0.315 |
| NCI-H2228 | 0.289 | 0.168 | 0.229 | 0.246 | 0.195 | 1.2 | 0.854 | 0.989 | 0.927 | 0.482 | – | – | – | – | – | 0.678 | 0.429 | 0.511 | 0.717 | 0.314 |
| NCI-H2342 | 0.451 | 0.4 | 0.446 | 0.476 | 0.469 | – | – | – | – | – | 0.744 | 0.749 | 0.699 | 0.815 | 0.696 | 0.524 | 0.459 | 0.471 | 0.415 | 0.502 |
| SW 900 | 0.659 | 0.548 | 0.445 | 0.478 | 0.371 | – | – | – | – | – | 0.512 | 0.4 | – | 0.43 | 0.432 | 0.826 | 0.765 | 0.711 | 0.733 | 0.964 |
